According to US20110044936A1, “Composition for Attracting Bed Bugs” (priority 2009, published 2011):

What was measured:
Type in all cases: in vivo
[1] = test system: bed bugs (Cimex lectularius); assay: Bed bug aggregation (attraction) assay, Petri dish arena with treated and control filter paper tents (Example 1); settings: 5 microliters, one hour, five bed bugs, average of two tests
Procedure: Attraction Assays: Assay arenas were made from 150×15 mm plastic Petri dishes (VWR#25384-326) containing a 125 mm piece off qualitative filter paper (VWR#28320-100) glued to the bottom using 3M Super 77® multipurpose spray adhesive. A 80 mm hole was cut into the lid and a 500 um mesh Nytex® screen (Bioquip, #7293B) was glued to cover the opening using quick epoxy. Fresh bottom dishes were used in each assay. For these experiments 2.4 cm filter paper folded to create a tent were treated with either a control treatment (10 microliters of silicone oil for aldehyde controls and 5 microliters of deionized water for acid controls) or 10 microliters of the experimental test treatment diluted in silicone oil (aldehydes) or 5 microliters of the experimental chemical diluted in deionized water (acids). Ten bed bugs per test were released into the assay arena for the aldehyde test treatments and controls, five bed bugs per test were released into the assay arena for the acid test treatments. Day cycling bed bugs (Cimex lectularius), 12 hour light: 12 hour dark (7 AM On: 7 PM Off) light cycle, were incubated and evaluated under normal room lighting conditions at room temperature. Readings were taken at 1 hour intervals from the release of bed bugs for 4 hours for aldehydes and one hour for acids, due to the quick volatility of the acids. The number of bed bugs under the control filter paper disk and the number of bed bugs under the test treatment filter paper disk were recorded. The test treatment was considered to be an attractant if the number of bed bugs under the experimental filter disk was greater than the number under the control filter disk. Table 1 below summarizes the experimental data, the experimental test treatments considered as attractants are in bold.

[2] = test system: bed bugs (Cimex lectularius); assay: Bed bug aggregation assay, mixtures of Hexenal, Octenal and butyric acid (Example 3); settings: for Number of bed bugs under experimental (Exp) disk: H/O 75/25 120 ppm in silicone oil, BA about 100 ppm in deionized water, 5 microliters each, ten bed bugs, average of two tests
Procedure: Attraction Assays: […] For this test, a mixture of Hexenal and Octenal (75:25 ratio) was diluted in silicone oil to provide about a 120 ppm solution. […] Readings were taken hourly for four hours from the release of bed bugs in the assay arena. The number of bed bugs under the control disk and the number of bed bugs under the experimental disk were recorded. The test chemical was considered to be an attractant if the number of bed bugs under the experimental filter disk was greater than the number under the control disk. Table 3 below summarizes the experimental data, the experimental test treatment considered as attractants are in bold.

[3] = test system: bed bugs (Cimex lectularius); assay: Test arena gas assay, compounds dissolved in nonane (Example 5)
Source text: A test arena was constructed from a 60×40×22 cm (L:W:H) polystyrene container. A 60×40 cm piece of filter paper was glued on the bottom to provide a walking surface for the bed bugs. At one end of the test arena, a triangular piece of plastic (16 cm high×25 cm long) was glued to the middle of the side and bottom of the container to create test zones of equal area on either side of the partition. On each side of this partition a piece of Tygon® tubing was inserted through a hole 7 cm above the bottom of each test zone to deliver a control gas to one side of the partition (control zone) and the experimental gas to the other side of the partition (experimental zone). The tubing was positioned to deliver the gases downward into the test zones with each outlet 6 cm above the filter paper glued to the bottom of the container. At the other end of the test arena, a 4 W night light was placed 35 cm above the bottom of the arena and regulated to a 12 hour light:12 hour dark (7 AM On: 7 PM Off) light cycle. Also placed adjacent to the night light was a small fan (Boston, cat#EHSDF) to create a gentle removal of gases from the distal part of the arena. Air released by the experimental and control gases was contained within their partitions and were gently drawn away from the respective air inputs, mixed within the arena and removed by the fan. This created a laminar flow where the bed bugs had opportunity to select either the experimental or control gas. Fifty bed bugs (Cimex lectularius) were entrapped within an inverted 90 mm Petri dish at a position furthest from the control and experimental zones until bed bugs were quiescent. Removal of the Petri dish started the experiment and readings were taken every hour for two hours. Data collected were number of bed bugs in the experimental, control and free arena zones. In addition, gas temperature, relative humidity, air flow rate, and percent CO2 data were collected. The experimental gas was considered to be an attractant if more bed bugs were in the experimental zone than in the control zone.
Determination of Bed Bug Aggregation Effect Using Hexenal, Butyric Acid, trans-2-Hexen-1-al Diethylacetal, Trimethylsilyl Butyrate or Methyl Butyrate Dissolved in an Alkane Solvent Using the test arena and methods described in Example 4, test treatments containing about 300 ppm of a pro-aldehyde compound, trans-2-hexen-1-al diethylacetal, dissolved in nonane, about 300 ppm of Hexenal dissolved in nonane, about 200 ppm of butyric acid dissolved in nonane and about 200 ppm of a pro-organic acid compound, trimethylsilyl butyrate or methyl butyrate, dissolved in nonane were prepared. Separate 100 micro liter pipettes (Drummond Wiretrol 100 μL) were filled with the test solutions. One end of each micro liter pipette was sealed with parafilm leaving one end of each open. […] An air tight lid was placed onto the plastic container and the container was installed in-line after humidity and temperature conditioning of the gas and before the gas entered the arena. The micro liter pipettes were weighed before and after use to determine the amount of the test compounds released. The control gas used for these experiments consisted of house compressed air.

[4] = test system: bed bugs (Cimex lectularius); assay: Test arena assay with experimental gas and control gas zones (Example 4); settings: after two hour exposure; fifty bed bugs; Hexenal/Octenal 75/25 at 73 nanograms/hour, butyric acid 3.097 micrograms/hour @ 100 mL/min air flow; CO2 50%; test gas 23-26 °C; control gas compressed air
Source text: A test arena was constructed from a 60×40×22 cm (L:W:H) polystyrene container. […] At one end of the test arena, a triangular piece of plastic (16 cm high×25 cm long) was glued to the middle of the side and bottom of the container to create test zones of equal area on either side of the partition. On each side of this partition a piece of Tygon® tubing was inserted through a hole 7 cm above the bottom of each test zone to deliver a control gas to one side of the partition (control zone) and the experimental gas to the other side of the partition (experimental zone). The tubing was positioned to deliver the gases downward into the test zones with each outlet 6 cm above the filter paper glued to the bottom of the container. […] Removal of the Petri dish started the experiment and readings were taken every hour for two hours. […] Air temperature was monitored with a high/low thermometer. […] Relative humidity was monitored using a high/low hygrometer placed in-line immediately before the gas entered the arena. […] The relationship between valve settings and air flow was determined and using this information, valve settings were determined that could deliver blended gases (air and CO2) at a flow rate of about 100 or about 200 ml/min. […]

SMILES | Number of bed bugs under experimental (Exp) filter paper disk ([1]; organic acid 10 ppm in deionized water) | Number of bed bugs under experimental (Exp) filter paper disk ([1]; organic acid 50 ppm in deionized water) | Number of bed bugs under experimental (Exp) filter paper disk ([1]; organic acid 100 ppm in deionized water) | Number of bed bugs under experimental (Exp) filter paper disk ([1]; organic acid 1000 ppm in deionized water) | Number of bed bugs under experimental (Exp) filter paper disk ([1]; organic acid 10000 ppm in deionized water) | Number of bed bugs under experimental (Exp) disk ([2]; 1 Hour) | Number of bed bugs under experimental (Exp) disk ([2]; 2 Hour) | Number of bed bugs under experimental (Exp) disk ([2]; 3 Hour) | Number of bed bugs under experimental (Exp) disk ([2]; 4 Hours) | Attraction of bed bugs to experimental filter disks ([2]; H/O 75:25 120 ppm, butyric acid 100 ppm) | % Bed bugs in Experimental Zone ([3]; after two hour exposure, released from nonane solution at 150.0-184.8 nanograms/hour @ 100 mL/min air flow, test gas 21-22 °C, control gas compressed air) [%] | Attraction of bed bugs to gaseous mixture ([3]; test arena, two hour exposure, versus control gas) | % Bed bugs in Experimental Zone [4] [%]
CCCC(=O)O [Butyric acid, butyric acid] | 4 | 2 | 4 | 4 | 4 | 4.5 | 5.5 | 4.5 | 5 | attracted | 34.0 | attracted | 
O=C=O [CO2, carbon dioxide] |  |  |  |  |  |  |  |  |  |  |  |  | 76.0
